In patent publication US7256185B1, “Control of selective estrogen receptor modulators” (Eastern Virginia Medical School, priority 1997, dated 2007) one finds serum estrogen data, which are given here for five molecules.

Where two headings read alike, the source gives them in different places.

The procedure of the test: 1. Clomiphene is used alone at 100 mg/day for the treatment of endometriosis. […] Levonorgestrel at 75 mcg/day is then also administered.
2. Raloxifene at 500 mg/day and medroxprogesterone acetate at 12 mg/day were administrated to treat leiomyoma.
5. Clomiphene is used alone at 100 mg/day for the treatment of endometriosis. […] Danazol at 100 to 800 mg/day is then also administered.

The mark [1] stands for this setting: clomiphene ZU isomer 50 mg/day and norgestimate 100 mcg/day coadministered.
Setting [2] is: raloxifene 500 mg/day and medroxprogesterone acetate 12 mg/day administered together, leiomyoma.

Turning to `C#C[C@]1(OC(C)=O)CC[C@H]2[C@@H]3CCC4=CC(=NO)CC[C@@H]4[C@H]3CC[C@@]21CC` (mixture of isomers) [norgestimate], under setting [1], the serum estrogen entry was “remained at physiological levels”.

As to `CCN(CC)CCOc1ccc(/C(=C(\Cl)c2ccccc2)c2ccccc2)cc1` (single isomer, unassigned) [Clomiphene ZU isomer], the serum estrogen entry under setting [1] is given as “remained at physiological levels”.

For `C#C[C@]1(O)CC[C@H]2[C@@H]3CCC4=Cc5oncc5C[C@]4(C)[C@H]3CC[C@@]21C` [Danazol, danazol], the serum estrogen result (danazol 100 to 800 mg/day added to clomiphene 100 mg/day after serum estrogen reached 500 pg/ml, endometriosis) is “retreated to physiological value”.

For `O=C(c1ccc(OCCN2CCCCC2)cc1)c1c(-c2ccc(O)cc2)sc2cc(O)ccc12` [Raloxifene], under setting [2], the serum estrogen result is listed as “remained at physiological levels”.

Regarding `CC(=O)O[C@]1(C(C)=O)CC[C@H]2[C@@H]3C[C@H](C)C4=CC(=O)CC[C@]4(C)[C@H]3CC[C@@]21C` [medroxprogesterone acetate], under setting [2], the serum estrogen result is given as “remained at physiological levels”.
